Experiment: In vitro dissolution test, microcentrifuge method, in phosphate buffered saline (PBS) pH 6.5
Type: physicochemical
Conditions: for Concentration / AUC: Table 18, Drug 10 or Drug 11, PBS pH 6.5, 37° C., TCmax 1000 μg/mL
Protocol: The compositions comprising the CETP inhibitor and concentration-enhancing polymer provide enhanced concentration of the dissolved CETP inhibitor in in vitro dissolution tests. […] An appropriate PBS solution is an aqueous solution comprising 20 mM sodium phosphate (Na2HPO4), 47 mM potassium phosphate (KH2PO4), 87 mM NaCl, and 0.2 mM KCl, adjusted to pH 6.5 with NaOH. An appropriate MFD solution is the same PBS solution wherein additionally is present 7.3 mM sodium taurocholic acid and 1.4 mM of 1-palmitoyl-2-oleyl-sn-glycero-3-phosphocholine. In particular, a composition of the present invention can be dissolution-tested by adding it to MFD or PBS solution and agitating to promote dissolution.
Indeed, for some extremely insoluble CETP inhibitors, in order to identify the MDC achieved it may be necessary to use an amount of test composition such that if all of the CETP inhibitor dissolved, the CETP inhibitor concentration would be 10,000-fold or even more, that of the equilibrium concentration of the CETP inhibitor.
The MDC is taken to be the maximum value of dissolved CETP inhibitor measured over the duration of the test.
Filtration can be conducted using a 13 mm, 0.45 μm polyvinylidine difluoride syringe filter sold by Scientific Resources under the trademark TITAN®. Centrifugation is typically carried out in a polypropylene microcentrifuge tube by centrifuging at 13,000 G for 60 seconds. Other similar filtration or centrifugation methods can be employed and useful results obtained.
The spray-dried dispersions of Examples 6 and 7 were evaluated in an in vitro dissolution test using a microcentrifuge method. In this test, the spray-dried dispersion was added to a microcentrifuge tube for a Drug 2 dose of about 1000 μg/mL (7.2 mg for Example 6, 18 mg for Example 7). The tube was placed in a 37° C. sonicating bath, and 1.8 mL phosphate buffered saline (PBS) at pH 6.5 and 290 mOsm/kg was added. The samples were quickly mixed using a vortex mixer for about 60 seconds. The samples were centrifuged at 13,000 G at 37° C. for 1 minute. The resulting supernatant solution was then sampled and diluted 1:6 (by volume) with methanol and then analyzed by high-performance liquid chromatography (HPLC). The contents of the tubes were mixed on the vortex mixer and allowed to stand undisturbed at 37° C. until the next sample was taken. Samples were collected at 4, 10, 20, 40, 90, and 1200 minutes.
For Control 2, an in vitro dissolution test was performed using the procedures described above except that 1.8 mg of crystalline Drug 2 was used.
In this method, 7.2 mg of each spray-dried dispersion was added to a 2-mL microcentrifuge tube. The tube was placed in a 37° C. sonicating bath, and 1.8 mL of a phosphate-buffered saline (PBS) solution at pH 6.5 and 290 mOsm/kg was added, resulting in a TCmax of 400 μg/mL. The samples were quickly mixed using a combination of vortex mixer and sonication for about 90 seconds. The samples were centrifuged at 13,000 G at 37° C. for 1 minute. The resulting supernatant solution was then sampled and diluted 1:6 (by volume) with methanol and then analyzed by HPLC. The tubes were then mixed on the vortex mixer and allowed to stand undisturbed at 37° C. until the next sample. Samples were collected at 4, 10, 20, 40, 90 and 1200 minutes.
For Control 5, an in vitro dissolution test was performed using the procedure described above, except that 0.72 mg of non-crystalline Drug 3 was placed in a microcentrifuge tube and mixed with 1.8 mL of PBS.
In this method, 15 mg of each SDD was added to a 2-mL microcentrifuge tube. The tube was placed in a 37° C. sonicating bath, and 1.5 mL of a phosphate-buffered saline (PBS) solution at pH 6.5 and 290 mOsm/kg) was added, resulting in a TCmax of 1000 μg/mL. The samples were quickly mixed using a combination of vortex mixer and sonication for about 90 seconds.

[1] = Table 19: Drugs 10 and 11, PBS pH 6.5, TCmax 1000 μg/mL

Row | SMILES | Concentration (0 min) | Concentration (4 min) | Concentration (10 min) | Concentration (20 min) | Concentration (40 min) | Concentration (90 min) | Concentration (1200 min) | AUC (to 0 min) | AUC (to 4 min) | AUC (to 10 min) | AUC (to 20 min) | AUC (to 40 min) | AUC (to 90 min) | AUC (to 1200 min) | AUC90 [1] | Cmax, 90 [1] | AUC90 (Table 34: Drug 12, PBS) | Cmax, 90 (Table 34: Drug 12, PBS)
1 | CC(C)c1cc2c(c(-c3ccc(F)cc3)c1[C@@H](F)c1ccc(C(F)(F)F)cc1)[C@@H](O)CC1(CCC1)C2 [Control 12, (4′S)-5′-(4-fluorophenyl)-6′-[(S)-fluoro[4-(trifluoromethyl)phenyl]methyl]-3′,4′-dihydro-7′-(1-methylethyl)-spiro[cyclobutane-1,2′(1′H)-naphthalen]-4′-ol] | 0 ng/mL | 0 ng/mL | 1000 ng/mL | 3000 ng/mL | 6000 ng/mL | 1000 ng/mL | 0 ng/mL | 0 min-μg/mL | 0 min-μg/mL | 0 min-μg/mL | 0 min-μg/mL | 100 min-μg/mL | 300 min-μg/mL | 1,100 min-μg/mL | 300 min-μg/mL | 6000 ng/mL |  | 
2 | CCc1cc(Oc2cccc(N(Cc3cccc(OC(F)(F)C(F)F)c3)C[C@@H](O)C(F)(F)F)c2)ccc1Cl [Control 13, (2R)-3-[[3-(4-chloro-3-ethylphenoxy)phenyl][[3-(1,1,2,2-tetrafluoroethoxy)phenyl]methyl]amino]-1,1,1-trifluoro-2-propanol] | 0 ng/mL | 1000 ng/mL | 1000 ng/mL | 1000 ng/mL | 1000 ng/mL | 1000 ng/mL | 0 ng/mL | 0 min-μg/mL | 0 min-μg/mL | 0 min-μg/mL | 0 min-μg/mL | 0 min-μg/mL | 100 min-μg/mL | 600 min-μg/mL | 80 min-μg/mL | 1000 ng/mL |  | 
3 | CC[C@@H]1C[C@H](N(Cc2cc(C(F)(F)F)cc(C(F)(F)F)c2)C(=O)OC)c2cc(C(F)(F)F)ccc2N1C(=O)OC(C)C [Control 14, [2R,4S]4-[(3,5-bis-trifluoromethyl-benzyl)-methoxycarbonyl-amino]-2-ethyl-6-trifluoromethyl-3,4-dihydro-2H-quinoline-1-carboxylic acid isopropyl ester] |  |  |  |  |  |  |  |  |  |  |  |  |  |  |  |  | <88 min-μg/mL | <1000 ng/mL
